How the values were obtained:
Format in all cases: cell-based, Corynebacterium glutamicum
ATCC13869-L30 strain = experiment: Resistance to 4-fluoroglutamic acid in a liquid medium; conditions: minimum liquid medium, 1.25 mM to 20 mM 4-fluoroglutamic acid, 31.5° C., culture without 4-fluoroglutamic acid set to 1 (FIG. 7)
Experimental: (§1) 4-fluoroglutamic acid was added into the minimum liquid medium having the same composition as described in Example 4 but not containing agar to the final concentration of 1.25 mM, 2.5 mM, 5 mM, 10 mM, and 20 mM, respectively. Each of the ATCC13869 strain, ATCC13869ΔyggB strain, ATCC13869-L30 strain, and ATCC13869-A1 strain was spread over a CM-Dex plate and cultured at 31.5° C. overnight. Then, cells were collected, and after washing with the sterilized 0.85% NaCl solution, inoculated into the liquid medium and cultured at 31.5° C. with shaking. When the OD660 of each strain cultured without 4-fluoroglutamic acid reached 1.0, the culture was terminated and the obtained culture solution was diluted appropriately and spread over the CM-Dex plate overnight. The number of colonies which appeared were calculated and designated as a viable cell number.

ATCC13869-A1 strain = experiment: as above; conditions: minimum liquid medium, 1.25 mM to 20 mM 4-fluoroglutamic acid, 31.5° C., culture without 4-fluoroglutamic acid set to 1 (FIG. 7)
Experimental: as §1

[1] = test system: mutant-type yggB gene-introduced strains (ATCC13869-L30 strain, ATCC13869-A1 strain); experiment: Resistance to 4-fluoroglutamic acid on a solid medium; conditions: minimum plate medium, 7.5 mM 4-fluoroglutamic acid, 31.5° C., compared with wild-type ATCC13869 strain (FIG. 6)
Experimental: 4-fluoroglutamic acid solution which was adjusted to pH6.7 with NaOH and sterilized with filtration was added to the minimum medium described in Example 4 so that the final concentration of 4-fluoroglutamic acid was 7.5 mM. Each of the ATCC13869 strain, ATCC13869-L30 strain, and ATCC13869-A1 strain was spread over the CM-Dex plate and cultured overnight.

Question: Which results are given for `N[C@@H](CC(F)C(=O)O)C(=O)O` (stereo partly drawn) [4-fluoroglutamic acid]?
Answer: sensitivity to 4-fluoroglutamic acid (relative viable cell number) (ATCC13869-L30 strain): decreased sensitivity; sensitivity to 4-fluoroglutamic acid (relative viable cell number) (ATCC13869-A1 strain): decreased sensitivity; growth in the presence of 4-fluoroglutamic acid [1]: grow faster than wild-type ATCC13869 strain

— patent publication US8278074B2, “L-glutamic acid-producing microorganism and a method for producing L-glutamic acid” (priority 2004, dated 2012)
